Laboratory results as given in EP0792649A1, “Treatment of sleep disorders” (ELI LILLY AND COMPANY, priority 1996, dated 1997).

What was measured:
Type in all cases: in vivo, Sprague-Dawley rats
NE = assay: Microdialysis assays of monoamines: NE level in hypothalamus dialysate of conscious rats
Procedure: (§1) The tests were carried out as follows.
(§2) Sprague-Dawley rats (Harlan or Charles River) weighing 270-300 grams were surgically implanted with microdialysis probes under chloral hydrate/pentobarbital anesthesia (170 and 36 mg/kg i.p. in 30% propylene glycol, 14% ethanol) (Perry and Fuller, Effect of fluoxetine on serotonin and dopamine concentration in rat hypothalamus after administration of fluoxetine plus L-5-hydroxytryptophan, Life Sci., 50, 1683-90 (1992)). A David Kopf stereotaxic instrument was used to implant the probe unilaterally in the hypothalamus at coordinates rostral -1.5 mm, lateral -1.3 mm, and ventral -9.0 mm (Paxinos and Watson, 1986). After a 48 hour recovery period, rats were placed in a large plastic bowl with a mounted liquid swivel system (CMA/120 system for freely moving animals, Bioanalytical Systems, West Lafayette, IN). Filtered artificial cerebrospinal fluid (CSF) (150 mM NaCl, 3.0 mM KCl, 1.7 mM CaCl2, and 0.9 mM MgCl2) was perfused through the probe at a rate of 1.0 µl/min. The output dialysate line was fitted to a tenport HPLC valve with a 20 µl loop. At the end of each 30 minute sampling period, dialysate collected in the loop was injected on an analytical column (Spherisorb 3 µ ODS2, 2X150 mm, Keystone Scientific).
(§3) The method used to measure monoamines was as described by Perry and Fuller (1993). Briefly, dialysate collected in the 20 µl loop was assayed for 5-HT, NE and DA. The 20 µl injection went onto the column with a mobile phase which resolved NE, DA, and 5-HT: 75 mM potassium acetate, 0.5 mM ethylenediaminetetraacetic acid, 1.4 mM sodium octanesulfonic acid and 8% methanol, pH 4.9. The mobile phase for the amine column was delivered with a flow programmable pump at an initial flow rate of 0.2 ml/min increasing to 0.3 ml/min at 5 min then decreasing back to 0.2 ml/min at 26 min with a total run time of 30 min. Flow programming was used to elute the 5-HT within a 25 min time period. The electrochemical detector (EG&G, Model 400) for the amine column was set at a potential of 400 mV and a sensitivity of 0.2 nA/V. The data was collected and analyzed with a Hewlett-Packard HP1000 chromatography system which measured peak heights and calculated sample concentrations. Basal levels were measured for at least 90 minutes prior to drug administration.
(§4) Extracellular levels of the amines in microdialysates were calculated by comparing peak heights with those of 50 pmole standards. The mean value of the four samples immediately preceding drug administration served as the basal level for each experiment and data was converted to percent of basal. Paired t-tests were used to compare the mean of the basal values from the time point immediately preceding drug administration to those of each time point thereafter.
(§5) The rats were prepared as described above, and the indole was administered subcutaneously at 3 mg/kg 100 minutes after the start of the experiment. Fluoxetine was administered intraperitoneally at 10 mg/kg, together with a second dose of the indole at 3 mg/kg, 210 minutes after the start of the experiment. Each data point reported here represents a single animal.
(§6) The results are shown below as percent of baseline of the three monoamines, at various times after the start of the experiment. Each data point represents the average of three or more animals.
(§7) This test was carried out as described in Test 1, using 4-(2-hydroxy-3-cyclohexylaminopropoxy)indole, maleate, at 3 mg/kg administered at 120 minutes, and (+)-duloxetine, hydrochloride, at 4 mg/kg administered with a second dose of the indole at 3 mg/kg, at 270 minutes. Results are reported as in Test 2 above. The 5-HT results are the average of three animals, and the other results are the average of four animals.

DA = assay: Microdialysis assays of monoamines: DA level in hypothalamus dialysate of conscious rats
Procedure: as §1, §2, §3, §4, §5, §6, §7

5-HT = assay: Microdialysis assays of monoamines: 5-HT level in hypothalamus dialysate of conscious rats; details: for 5-HT level measured in the dialysate, % of baseline: Test 1, single animal; for 5-HT, percent of baseline: Test 3, average of three animals
Procedure: as §1, §2, §3, §4, §5, §6, §7

[1] = Test 2, 120 min (time of first (-)-pindolol dose, 5 mg/kg), average of three or more animals
[2] = Test 2, 150 min, (-)-pindolol 5 mg/kg at 120 min, average of three or more animals
[3] = Test 2, 180 min, (-)-pindolol 5 mg/kg at 120 min, average of three or more animals
[4] = Test 2, 210 min, (-)-pindolol 5 mg/kg at 120 min, average of three or more animals
[5] = Test 3, 120 min (time of first indole dose, 3 mg/kg), average of four animals
[6] = Test 3, 150 min, the indole 3 mg/kg at 120 min, average of four animals
[7] = Test 3, 180 min, the indole 3 mg/kg at 120 min, average of four animals
[8] = Test 3, 210 min, the indole 3 mg/kg at 120 min, average of four animals
[9] = Test 3, 240 min, the indole 3 mg/kg at 120 min, average of four animals
[10] = Test 3, 270 min, the indole 3 mg/kg at 120 min, average of four animals

## CC(C)NCC(O)COc1cccc2[nH]ccc12 (single isomer, unassigned; (-)) [(-)-pindolol, 4-(2-hydroxy-3-isopropylaminopropoxy)-indole]
NE; [1]
  NE, percent of baseline: 90%
NE; [2]
  NE, percent of baseline: 100%
NE; [3]
  NE, percent of baseline: 120%
NE; [4]
  NE, percent of baseline: 110%
DA; [1]
  DA, percent of baseline: 90%
DA; [2]
  DA, percent of baseline: 90%
DA; [3]
  DA, percent of baseline: 70%
DA; [4]
  DA, percent of baseline: 100%

## O=C(O)/C=C\C(=O)O.OC(CNC1CCCCC1)COc1cccc2[nH]ccc12 (centres unmarked) [4-(2-hydroxy-3-cyclohexylaminopropoxy)indole, maleate]
NE; Test 1, by 210 min, the indole 3 mg/kg s.c. at 100 min, single animal
  NE level, relative to baseline: nearly to baseline
NE; Test 1, highest level after the indole 3 mg/kg s.c. at 100 min, single animal
  NE level, % of baseline: about 180%
NE; [5]
  NE, percent of baseline: 100%
NE; [6]
  NE, percent of baseline: 160%
NE; [7]
  NE, percent of baseline: 140%
NE; [8]
  NE, percent of baseline: 140%
NE; [9]
  NE, percent of baseline: 130%
NE; [10]
  NE, percent of baseline: 150%
DA; Test 1, 120 min, the indole 3 mg/kg s.c. at 100 min, single animal
  DA level, % of baseline: about 210%
DA; Test 1, 210 min, the indole 3 mg/kg s.c. at 100 min, single animal
  DA level, relative to baseline: near baseline
DA; [5]
  DA, percent of baseline: 70%
DA; [6]
  DA, percent of baseline: 150%
DA; [7]
  DA, percent of baseline: 130%
DA; [8]
  DA, percent of baseline: 110%
DA; [9]
  DA, percent of baseline: 100%
DA; [10]
  DA, percent of baseline: 110%
5-HT; 210 min after start, the indole 3 mg/kg s.c. at 100 min
  5-HT level measured in the dialysate, % of baseline: about 80%
5-HT; lowest level after the indole 3 mg/kg s.c. at 100 min
  5-HT level measured in the dialysate, % of baseline: about 50%
5-HT; 120 min (time of first indole dose, 3 mg/kg)
  5-HT, percent of baseline: 90%
5-HT; 150 min, the indole 3 mg/kg at 120 min
  5-HT, percent of baseline: 130%
5-HT; 180 min, the indole 3 mg/kg at 120 min
  5-HT, percent of baseline: 130%
5-HT; 210 min, the indole 3 mg/kg at 120 min
  5-HT, percent of baseline: 80%
5-HT; 240 min, the indole 3 mg/kg at 120 min
  5-HT, percent of baseline: 90%
5-HT; 270 min, the indole 3 mg/kg at 120 min
  5-HT, percent of baseline: 80%
